Measurements as given in patent US20200277373A1, “ANTI-TREM2 ANTIBODIES AND METHODS OF USE THEREOF” (Denali Therapeutics Inc., priority 2017, published 2020).

What was measured:
Format in all cases: cell-based
TREM2 = target: T1, TREM2 (Homo sapiens, UniProt Q9NZC2); assay: Liposome stimulation pSyk AlphaLISA, HEK293 overexpressing TREM2 and DAP12; details: liposomes 30% lipid/70% PC (KLA 10%/90%), fold change over HBSS
T1 construct: expressed in transfected cells
Description: (§1) Lipids were purchased from Avanti Polar Lipids (Alabaster, Ala.) or Echelon Biosciences (Salt Lake City, Utah). Each screened lipid was resuspended in chloroform and added at 30 mole percent composition to 70 mole percent phosphatidylcholine (PC; 1,2-dioleoyl-sn-glycero-3-phosphocholine, Avanti Polar Lipids). Kdo2-Lipid A was added at a 10 mole percent composition with 90 mole percent PC. Lipid mixes were dried under nitrogen gas and resuspended in HBSS at a concentration of 4 mg/mL. Mixes were vortexed or briefly sonicated until resuspended, then bath sonicated for 1-5 minutes. Liposomes were used for 1-2 weeks. 3 independent batches of liposomes were used in experiments.
(§2) HEK293 cell lines overexpressing TREM2 and DAP12, mutant TREM2-R47H and DAP12, or DAP12 alone were plated in 96-well PDL-coated plates at a density of 40,000 cells per well and cultured for 36-48 hours until 90-100% confluent.
(§3) Cell culture medium was removed and cells were washed once with 200ul HBSS. Liposomes were diluted in HBSS in concentrations ranging from 0.03125 mg/mL to 2 mg/mL, then 50 μl was added to wells in 2-3 technical replicates per plate. Each plate contained HBSS negative control wells, 100% PC liposome control, 5 μg/mL agonist anti-TREM2 positive control (Abnova; Taiwan; # MAB2056), and 5 μg/mL mouse IgG3 isotype control (R&D Systems; Minneapolis, Minn.; # MAB007). Stimuli were incubated with cells for 5 minutes at 37° C., 5% CO2, liposomes were removed, and plates were frozen at −80° C.
(§4) Cells were lysed for 30 minutes to 1 hour on ice in 50 ul/well Cell Lysis Buffer (Cell Signaling Technology; Danvers, Mass.; #9803) with 1 mM PMSF. AlphaLISA SureFire Ultra p-Syk Tyr525/526 assay kit (PerkinElmer, ALSU-PSYK-A10OK) was used to measure pSyk levels in lysate as per manufacturer protocol. 10 μl lysate was added to 384-well OptiPlates (PerkinElmer; #6007290) and an EnVision Multilabel Plate Reader (PerkinElmer) was used to measure AlphaLISA fluorescence.
(§5) PSyk AlphaLISA fluorescence was converted to a log 2 scale. Fluorescence values from liposomes and controls were each subtracted from average fluorescence values from HBSS stimulated wells on the same plate (log 2(liposome)−log 2(HBSSave)=log 2(signal)). The result was converted back to a standard scale to measure fold change (2^log 2(signal)=fold change). Technical replicate fold changes values were averaged to obtain the fold change over background listed (pSyk FOB). Graphs represent values from independent experiments or individual human donors. Results from the screen on the HEK293 overexpressing cell lines are shown in Table 9 below and in FIG. 8A-8B. HEK293 results showing specificity for TREM2 over DAP12 expressed alone can be used to extrapolate which lipid species are likely acting as TREM2 ligands on human macrophages.

R47H TREM2 mutant = target: T2, R47H TREM2 mutant (Homo sapiens, UniProt Q9NZC2, R47H); assay: Liposome stimulation pSyk AlphaLISA, HEK293 overexpressing TREM2-R47H and DAP12; details: liposomes 30% lipid/70% PC (KLA 10%/90%), fold change over HBSS
T2 construct: expressed in transfected cells
Description: as §1, §2, §3, §4, §5

DAP12 alone = target: T3, DAP12 alone (Homo sapiens, UniProt O43914); assay: Liposome stimulation pSyk AlphaLISA, HEK293 expressing DAP12 alone; details: liposomes 30% lipid/70% PC (KLA 10%/90%), fold change over HBSS
T3 construct: expressed in transfected cells
Description: as §1, §2, §3, §4, §5

[1] = tested on: primary human macrophages; assay: Liposome stimulation pSyk AlphaLISA, primary human macrophages; details: liposomes 30% lipid/70% PC (KLA 10%/90%)
Description: as §1
10 mL human blood was obtained from Blood Centers of the Pacific. Monocytes were extracted using RosetteSep Human Monocyte Enrichment Cocktail ([…] Technologies Inc.; Vancouver, BC; #15068) as per manufacturer protocols. Density gradient was performed with Ficoll-Paque Premium (GE Healthcare Life Sciences; Pittsburgh, Pa.; #17-5442-02). Isolated monocytes were resuspended at ˜1-1.3 million cells/mL and cultured for 5-6 days in RPMI, 10% Hyclone Fetal Bovine Serum, and penicillin/streptomycin supplemented with 50 ng/mL human M-CSF (Gibco, # PHC9501) in T175 tissue culture treated flasks. M-CSF was replenished every 2-3 days. Cells were washed once with PBS, 15 mL fresh medium was added, and cells were harvested by scraping. Cells were cultured overnight at a density of 100,000 cells per well on tissue culture treated 96-well plates supplemented with 10-25 ng/mL M-CSF.
as §3, §4, §5

T2 sequence (Q9NZC2 19-230 R47H): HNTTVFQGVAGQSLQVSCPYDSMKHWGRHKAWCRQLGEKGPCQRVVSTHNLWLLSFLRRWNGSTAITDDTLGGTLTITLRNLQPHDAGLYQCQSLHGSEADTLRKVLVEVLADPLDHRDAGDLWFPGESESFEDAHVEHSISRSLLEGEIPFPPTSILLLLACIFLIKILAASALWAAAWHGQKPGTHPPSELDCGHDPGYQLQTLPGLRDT
T2 sequence (O43914 22-113 partner): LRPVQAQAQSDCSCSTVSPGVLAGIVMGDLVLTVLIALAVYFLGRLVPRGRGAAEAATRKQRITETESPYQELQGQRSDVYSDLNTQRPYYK
T1 sequence (Q9NZC2 19-230): as the sequence (Q9NZC2 19-230 R47H) above, with H29R counted along it
T1 sequence (O43914 22-113 partner): as the sequence (O43914 22-113 partner) above
T3 sequence (O43914 22-113): as the sequence (O43914 22-113 partner) above

Compound	Human TREM2 (pSyk FOB) (TREM2)	R47H TREM2 mutant (pSyk FOB) (R47H TREM2 mutant)	DAP12 alone (pSyk FOB) (DAP12 alone)	pSyk FOB [1]
Lysophosphatidic acid [Lysophosphatidic acid (LPA)]	3.69 FOB	3.62 FOB	1.17 FOB	1.82 FOB
CCCCC/C=C\C/C=C\C/C=C\C/C=C\CCCC(=O)OC(CO)CO [2-Arachidonoylglycerol (2-AG), 2-Arachidonoylglycerol]	0.68 FOB	0.84 FOB	1.11 FOB	1.23 FOB
Ceramide	2.20 FOB	2.21 FOB	1.30 FOB	1.44 FOB
Sphingomyelin [Sphingomyelin (SM)]	1.74 FOB	2.09 FOB	1.40 FOB	1.02 FOB
Phosphatidylethanolamine [Phosphatidylethanolamine (PE) or DSPE]	1.49 FOB	2.49 FOB	1.51 FOB	1.53 FOB
Ganglioside GM1	4.94 FOB	4.93 FOB	0.92 FOB	1.52 FOB
Phosphatidic acid [Phosphatidic acid (PA)]	2.17 FOB	2.72 FOB	1.48 FOB	2.17 FOB
Phosphatidylglycerol [Phosphatidylglycerol (PG) or DSPG]	2.25 FOB	3.77 FOB	1.40 FOB	1.85 FOB
CCCCCCCC(=O)OC[C@H](COP(=O)(O)OP(=O)(O)O)OC(=O)CCCCCCC [Diacylglycerol pyrophosphate (DGPP), Diacylglycerol pyrophosphate]	3.42 FOB	3.70 FOB	1.16 FOB	1.61 FOB
CC(C)CCC[C@@H](C)[C@H]1CC[C@H]2[C@@H]3CC=C4C[C@@H](O)CC[C@]4(C)[C@H]3CC[C@]12C [Free cholesterol (FC), Free cholesterol]	1.04 FOB	2.24 FOB	1.14 FOB	1.44 FOB
N-Acyl-Serine [N-Acyl-Serine (NSer)]	2.59 FOB	3.76 FOB	1.39 FOB	1.66 FOB
CCCCCCCC/C=C\CCCCCCCC(=O)OC[C@H](COP(=O)([O-])OCC[N+](C)(C)C)OC(=O)CCCCCCC/C=C\CCCCCCCC [100% Phosphatidylcholine (PC), 1,2-dioleoyl-sn-glycero-3-phosphocholine, reference compound]	2.01 FOB	2.27 FOB	0.86 FOB	1.18 FOB
CC(C)CCC[C@@H](C)[C@H]1CC[C@H]2[C@@H]3C(=O)C=C4C[C@@H](O)CC[C@]4(C)[C@H]3CC[C@]12C [7-ketocholesterol (7-KC), 7-ketocholesterol]	1.10 FOB	3.42 FOB	1.36 FOB	1.18 FOB
Phosphatidylserine [Phosphatidylserine (PS)]	2.42 FOB	2.65 FOB	1.27 FOB	2.09 FOB
Phosphatidylinositol [Phosphatidylinositol (PI)]	4.31 FOB	2.27 FOB	1.04 FOB	2.09 FOB
Bis(monoacylglycero)phosphate [Bis(monoacylglycero)phosphate (BMP)]	4.85 FOB	3.04 FOB	1.42 FOB	2.19 FOB
CCCCCCCCCCCCCCC[C@@H](O)[C@@H](N)COP(=O)(O)O [Sphinganine-1-phosphate (SalP), Sphinganine-1-phosphate]	3.31 FOB	5.32 FOB	1.34 FOB	1.08 FOB
Ceramide-1-phosphate [Ceramide-1-phosphate (C1P)]	3.89 FOB	4.00 FOB	1.16 FOB	2.28 FOB
Galactosylceramide [Galactosylceramide (GalCer)]	3.45 FOB	4.65 FOB	1.16 FOB	1.98 FOB
CCCCCCCCCCCCC/C=C/[C@@H](O)[C@@H](N)COP(=O)([O-])OCC[N+](C)(C)C [Lysosphingomyelin (LSM), Lysosphingomyelin]	0.67 FOB	0.85 FOB	1.03 FOB	1.26 FOB
Ganglioside GM3	5.82 FOB	6.05 FOB	1.14 FOB	1.17 FOB
Dihydrosphingomyelin [Dihydrosphingomyelin (DhSM)]	1.59 FOB	1.93 FOB	1.40 FOB	0.96 FOB
Lysophosphatidylserine [Lysophosphatidylserine (LPS)]	3.77 FOB	3.88 FOB	1.39 FOB	1.78 FOB
CCCCCCCCCCCCC/C=C/[C@@H](O)[C@@H](N)COP(=O)(O)O [Sphingosine-1-phosphate (SolP), Sphingosine-1-phosphate]	2.42 FOB	3.94 FOB	1.64 FOB	2.10 FOB
Phosphatidylethanol [Phosphatidylethanol (PEtOH)]	3.00 FOB	4.83 FOB	1.57 FOB	1.61 FOB
C[C@@H](CO)CCC[C@@H](C)[C@H]1CC[C@H]2[C@@H]3CC=C4C[C@@H](O)CC[C@]4(C)[C@H]3CC[C@]12C [27-hydroxycholesterol (27OHC), 27-hydroxycholesterol]	5.26 FOB	9.25 FOB	1.36 FOB	1.72 FOB
Sulfatide	5.02 FOB	6.34 FOB	1.21 FOB	1.75 FOB
